Data from US20230406885A1, “CYCLIC PEPTIDES FOR TRAPPING INTERLEUKIN-1 BETA” (MERCK SHARP & DOHME LLC, priority 2022, published 2023).
pIC50: −log10 of the molar value. *1 amine or outer side, *2 acyl side, *3 side chain or, on linkers, in order; H or OH if unused. Where a SMILES comes first, the peptide text is derived from it. [ ]: non-standard residue; d: D form. Phe(4-(4-Ac-piperazinyl)) = CC(=O)N1CCN(c2ccc(C[C@H](N)C(=O)O)cc2)CC1; Bip(4'-COOH) = N[C@@H](Cc1ccc(-c2ccc(C(=O)O)cc2)cc1)C(=O)O; 1Nal(3S-Me) = C[C@@H](c1cccc2ccccc12)[C@H](N)C(=O)O; Ala(indolin-1-yl) = N[C@@H](CN1CCc2ccccc21)C(=O)O; Trp(6-Cl) = N[C@@H](Cc1c[nH]c2cc(Cl)ccc12)C(=O)O; Phe(4-COOH) = N[C@@H](Cc1ccc(C(=O)O)cc1)C(=O)O; Trp(6-F) = N[C@@H](Cc1c[nH]c2cc(F)ccc12)C(=O)O; Trp(7-aza) = N[C@@H](Cc1c[nH]c2ncccc12)C(=O)O; X14 = C[N+](C)(C)CC[C@@H](N[*:1])C(=O)[*:2]; h3Pal(5-CN) = N#Cc1cncc(CC[C@H](N)C(=O)O)c1; Pro(4R-NH2) = N[C@H]1CN[C@H](C(=O)O)C1; AEF = NCCOc1ccc(C[C@H](N)C(=O)O)cc1; hTyr = N[C@@H](CCc1ccc(O)cc1)C(=O)O; hCha = N[C@@H](CCC1CCCCC1)C(=O)O; dDab = NCC[C@@H](N)C(=O)O; Orn = NCCC[C@H](N)C(=O)O; dDap = NC[C@@H](N)C(=O)O; dNMeA = CN[C@H](C)C(=O)O; Dab = NCC[C@H](N)C(=O)O; Dap = NC[C@H](N)C(=O)O

What follows are molecules tested against T1, Recombinant human IL-1β (Homo sapiens, UniProt P01584) (assay: IL-6 assay in MRC5 cells: inhibition of IL-1β induced IL-6 secretion (AlphaLISA)). Conditions: inhibition of IL-1β induced IL-6 secretion in MRC5 cells; read-out: MRC5 IC50.
T1 construct: purchased BioLegend 579404
T1 sequence (P01584 117-269): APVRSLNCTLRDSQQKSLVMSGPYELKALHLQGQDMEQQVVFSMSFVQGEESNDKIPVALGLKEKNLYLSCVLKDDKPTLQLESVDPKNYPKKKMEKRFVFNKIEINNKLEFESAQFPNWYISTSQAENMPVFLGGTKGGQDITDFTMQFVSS
Assay type: cell-based
Summary of the method: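 IL-1β at 2×EC80 in seeding medium (EMEM, 0.025% BSA) preincubated 1 h at ambient temperature with compound, then 3000 MRC5 cells/well added and incubated overnight at 37 °C, 5% CO2. IL-6 in conditioned medium quantified by AlphaLISA; IC50 from 4-parameter logistic fit.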
Work on `CC(=O)N1CCN(c2ccc(C[C@@H]3NC(=O)[C@H](CCC4CCCCC4)NC(=O)[C@@H](C)NC(=O)[C@H](CC(C)C)NC(=O)[C@H](CCN)NC(=O)[C@H](Cc4ccc(-c5ccc(C(=O)O)cc5)cc4)NC(=O)CNC(=O)[C@@H](C)N(C)C(=O)[C@H](CC(=O)O)NC(=O)[C@H]([C@@H](C)c4cccc5ccccc45)NC(=O)[C@@H]4C[C@@H](N)CN4C(=O)CNC(=O)[C@H](Cc4ccc(C(=O)O)cc4)NC(=O)[C@H](Cc4c[nH]c5ccccc45)NC3=O)cc2)CC1` [Example 203] (cyclo([Phe(4-(4-Ac-piperazinyl))]W[Phe(4-COOH)]G[Pro(4R-NH2)][1Nal(3S-Me)]D[dNMeA]G[Bip(4'-COOH)][Dab]L[dA][hCha])) yielded a pIC50 of 10.92.
Molecule `CC(=O)NC[C@@H]1NC(=O)[C@H](Cc2ccc(-c3ccc(C(=O)O)cc3)cc2)NC(=O)CNC(=O)[C@@H](C)N(C)C(=O)[C@H](CC(=O)O)NC(=O)[C@H]([C@@H](C)c2cccc3ccccc23)NC(=O)[C@@H]2C[C@@H](N)CN2C(=O)CNC(=O)[C@H](Cc2ccc(C(=O)O)cc2)NC(=O)[C@H](Cc2c[nH]c3ccccc23)NC(=O)[C@H](Cc2ccc(N3CCN(C(C)=O)CC3)cc2)NC(=O)[C@H](CCc2cncc(C#N)c2)NC(=O)[C@@H](C)NC(=O)[C@H](CCCCN)NC1=O` [Example 204] (cyclo([Phe(4-(4-Ac-piperazinyl))]W[Phe(4-COOH)]G[Pro(4R-NH2)][1Nal(3S-Me)]D[dNMeA]G[Bip(4'-COOH)][Dap](Ac)K[dA][h3Pal(5-CN)])) has a pIC50 of 11.05.
In the case of `CC(=O)NC[C@@H]1NC(=O)[C@H](Cc2ccc(-c3ccc(C(=O)O)cc3)cc2)NC(=O)CNC(=O)[C@@H](C)N(C)C(=O)[C@H](CC(=O)O)NC(=O)[C@H]([C@@H](C)c2cccc3ccccc23)NC(=O)[C@@H]2C[C@@H](N)CN2C(=O)CNC(=O)[C@H](Cc2ccc(C(=O)O)cc2)NC(=O)[C@H](Cc2c[nH]c3ccccc23)NC(=O)[C@H](Cc2ccc(N3CCN(C(C)=O)CC3)cc2)NC(=O)[C@H](CCc2cncc(C#N)c2)NC(=O)[C@@H](CN)NC(=O)[C@H](CC(C)C)NC1=O` [Example 205] (cyclo([Phe(4-(4-Ac-piperazinyl))]W[Phe(4-COOH)]G[Pro(4R-NH2)][1Nal(3S-Me)]D[dNMeA]G[Bip(4'-COOH)][Dap](Ac)L[dDap][h3Pal(5-CN)])), the pIC50 was 11.00.
Molecule `CC(=O)N1CCN(c2ccc(C[C@@H]3NC(=O)[C@H](CCC4CCCCC4)NC(=O)[C@@H](C)NC(=O)[C@H](CC(C)C)NC(=O)[C@H](CN)NC(=O)[C@H](Cc4ccc(-c5ccc(C(=O)O)cc5)cc4)NC(=O)CNC(=O)[C@@H](C)N(C)C(=O)[C@H](CC(=O)O)NC(=O)[C@H]([C@@H](C)c4cccc5ccccc45)NC(=O)[C@@H]4C[C@@H](N)CN4C(=O)CNC(=O)[C@H](Cc4ccc(C(=O)O)cc4)NC(=O)[C@H](Cc4c[nH]c5ccccc45)NC3=O)cc2)CC1` [Example 206] (cyclo([Phe(4-(4-Ac-piperazinyl))]W[Phe(4-COOH)]G[Pro(4R-NH2)][1Nal(3S-Me)]D[dNMeA]G[Bip(4'-COOH)][Dap]L[dA][hCha])) has a pIC50 of 10.82.
`CC(=O)N1CCN(c2ccc(C[C@@H]3NC(=O)[C@H](CCC4CCCCC4)NC(=O)[C@@H](C)NC(=O)[C@H](CC(C)C)NC(=O)[C@H](CCCCN)NC(=O)[C@H](Cc4ccc(-c5ccc(C(=O)O)cc5)cc4)NC(=O)CNC(=O)[C@@H](C)N(C)C(=O)[C@H](CC(=O)O)NC(=O)[C@H]([C@@H](C)c4cccc5ccccc45)NC(=O)[C@@H]4C[C@@H](N)CN4C(=O)CNC(=O)[C@H](Cc4ccc(C(=O)O)cc4)NC(=O)[C@H](Cc4c[nH]c5ccccc45)NC3=O)cc2)CC1` [Example 207] (cyclo([Phe(4-(4-Ac-piperazinyl))]W[Phe(4-COOH)]G[Pro(4R-NH2)][1Nal(3S-Me)]D[dNMeA]G[Bip(4'-COOH)]KL[dA][hCha])) gave a pIC50 of 10.96.
`CC(=O)NCCCC[C@@H]1NC(=O)[C@H](Cc2ccc(-c3ccc(C(=O)O)cc3)cc2)NC(=O)CNC(=O)[C@@H](C)N(C)C(=O)[C@H](CC(=O)O)NC(=O)[C@H]([C@@H](C)c2cccc3ccccc23)NC(=O)[C@@H]2C[C@@H](N)CN2C(=O)CNC(=O)[C@H](Cc2ccc(C(=O)O)cc2)NC(=O)[C@H](Cc2c[nH]c3ccccc23)NC(=O)[C@H](Cc2ccc(N3CCN(C(C)=O)CC3)cc2)NC(=O)[C@H](CCc2cncc(C#N)c2)NC(=O)[C@@H](C)NC(=O)[C@H](CC(C)C)NC1=O` [Example 208] (cyclo([Phe(4-(4-Ac-piperazinyl))]W[Phe(4-COOH)]G[Pro(4R-NH2)][1Nal(3S-Me)]D[dNMeA]G[Bip(4'-COOH)]K(Ac)L[dA][h3Pal(5-CN)])) showed a pIC50 of 10.74.
With `CC(=O)N1CCN(c2ccc(C[C@@H]3NC(=O)[C@H](CCC4CCCCC4)NC(=O)[C@@H](C)NC(=O)[C@H](CC(C)C)NC(=O)[C@H](CCCN)NC(=O)[C@H](Cc4ccc(-c5ccc(C(=O)O)cc5)cc4)NC(=O)CNC(=O)[C@@H](C)N(C)C(=O)[C@H](CC(=O)O)NC(=O)[C@H]([C@@H](C)c4cccc5ccccc45)NC(=O)[C@@H]4C[C@@H](N)CN4C(=O)CNC(=O)[C@H](Cc4ccc(C(=O)O)cc4)NC(=O)[C@H](Cc4c[nH]c5ccccc45)NC3=O)cc2)CC1` [Example 209] (cyclo([Phe(4-(4-Ac-piperazinyl))]W[Phe(4-COOH)]G[Pro(4R-NH2)][1Nal(3S-Me)]D[dNMeA]G[Bip(4'-COOH)][Orn]L[dA][hCha])) the pIC50 was 11.05.
For `CC(=O)NCCOc1ccc(C[C@@H]2NC(=O)[C@H](CCC3CCCCC3)NC(=O)[C@@H](CCN)NC(=O)[C@H](CO)NC(=O)[C@H](Cc3c[nH]c4ncccc34)NC(=O)[C@H](Cc3ccc(-c4ccc(C(=O)O)cc4)cc3)NC(=O)CNC(=O)[C@@H](C)N(C)C(=O)[C@H](CC(=O)O)NC(=O)[C@H]([C@@H](C)c3cccc4ccccc34)NC(=O)[C@@H]3C[C@@H](N)CN3C(=O)CNC(=O)[C@H](Cc3ccc(C(=O)O)cc3)NC(=O)[C@H](Cc3c[nH]c4cc(Cl)ccc34)NC2=O)cc1` [Example 210] (cyclo([AEF](Ac)[Trp(6-Cl)][Phe(4-COOH)]G[Pro(4R-NH2)][1Nal(3S-Me)]D[dNMeA]G[Bip(4'-COOH)][Trp(7-aza)]S[dDab][hCha])), the pIC50 was 10.70.
In the case of `CC(=O)NCCOc1ccc(C[C@@H]2NC(=O)[C@H](CCc3ccc(O)cc3)NC(=O)[C@@H](CCN)NC(=O)CNC(=O)[C@H](CN3CCc4ccccc43)NC(=O)[C@H](Cc3ccc(-c4ccc(C(=O)O)cc4)cc3)NC(=O)CNC(=O)[C@@H](C)N(C)C(=O)[C@H](CC(=O)O)NC(=O)[C@H]([C@@H](C)c3cccc4ccccc34)NC(=O)[C@@H]3C[C@@H](N)CN3C(=O)CNC(=O)[C@H](Cc3ccc(C(=O)O)cc3)NC(=O)[C@H](Cc3c[nH]c4cc(F)ccc34)NC2=O)cc1` [Example 211] (cyclo([AEF](Ac)[Trp(6-F)][Phe(4-COOH)]G[Pro(4R-NH2)][1Nal(3S-Me)]D[dNMeA]G[Bip(4'-COOH)][Ala(indolin-1-yl)]G[dDab][hTyr])), the pIC50 was 10.57.
Molecule `CC(=O)NCCOc1ccc(C[C@@H]2NC(=O)[C@H](CCC3CCCCC3)NC(=O)[C@@H](CCN)NC(=O)[C@H](CO)NC(=O)[C@H](Cc3c[nH]c4ncccc34)NC(=O)[C@H](Cc3ccc(-c4ccc(C(=O)O)cc4)cc3)NC(=O)CNC(=O)[C@@H](C)N(C)C(=O)[C@H](CC(=O)O)NC(=O)[C@H]([C@@H](C)c3cccc4ccccc34)NC(=O)[C@@H]3C[C@@H](N)CN3C(=O)CNC(=O)[C@H](Cc3ccc(C(=O)O)cc3)NC(=O)[C@H](Cc3c[nH]c4cc(F)ccc34)NC2=O)cc1` [Example 212] (cyclo([AEF](Ac)[Trp(6-F)][Phe(4-COOH)]G[Pro(4R-NH2)][1Nal(3S-Me)]D[dNMeA]G[Bip(4'-COOH)][Trp(7-aza)]S[dDab][hCha])) has a pIC50 of 10.60.
In the case of `CC(=O)NCCOc1ccc(C[C@@H]2NC(=O)[C@H](CCC3CCCCC3)NC(=O)[C@@H](CC[N+](C)(C)C)NC(=O)[C@H](CO)NC(=O)[C@H](Cc3c[nH]c4ncccc34)NC(=O)[C@H](Cc3ccc(-c4ccc(C(=O)O)cc4)cc3)NC(=O)CNC(=O)[C@@H](C)N(C)C(=O)[C@H](CC(=O)O)NC(=O)[C@H]([C@@H](C)c3cccc4ccccc34)NC(=O)[C@@H]3C[C@@H](N)CN3C(=O)CNC(=O)[C@H](Cc3ccc(C(=O)O)cc3)NC(=O)[C@H](Cc3c[nH]c4cc(F)ccc34)NC2=O)cc1` [Example 213] (cyclo([AEF](Ac)[Trp(6-F)][Phe(4-COOH)]G[Pro(4R-NH2)][1Nal(3S-Me)]D[dNMeA]G[Bip(4'-COOH)][Trp(7-aza)]S[X14][hCha])), the pIC50 was 10.74.
`CC(=O)NCCOc1ccc(C[C@@H]2NC(=O)[C@H](CCC3CCCCC3)NC(=O)[C@@H](CCN)NC(=O)CNC(=O)[C@H](Cc3c[nH]c4ncccc34)NC(=O)[C@H](Cc3ccc(-c4ccc(C(=O)O)cc4)cc3)NC(=O)CNC(=O)[C@@H](C)N(C)C(=O)[C@H](CC(=O)O)NC(=O)[C@H]([C@@H](C)c3cccc4ccccc34)NC(=O)[C@@H]3C[C@@H](N)CN3C(=O)CNC(=O)[C@H](Cc3ccc(C(=O)O)cc3)NC(=O)[C@H](Cc3c[nH]c4ccccc34)NC2=O)cc1` [Example 214] (cyclo([AEF](Ac)W[Phe(4-COOH)]G[Pro(4R-NH2)][1Nal(3S-Me)]D[dNMeA]G[Bip(4'-COOH)][Trp(7-aza)]G[dDab][hCha])) was tested, and the pIC50 was 10.70.
`CC(=O)NCCOc1ccc(C[C@@H]2NC(=O)[C@H](CCc3ccc(O)cc3)NC(=O)[C@@H](CCN)NC(=O)CNC(=O)[C@H](Cc3c[nH]c4ncccc34)NC(=O)[C@H](Cc3ccc(-c4ccc(C(=O)O)cc4)cc3)NC(=O)CNC(=O)[C@@H](C)N(C)C(=O)[C@H](CC(=O)O)NC(=O)[C@H]([C@@H](C)c3cccc4ccccc34)NC(=O)[C@@H]3C[C@@H](N)CN3C(=O)CNC(=O)[C@H](Cc3ccc(C(=O)O)cc3)NC(=O)[C@H](Cc3c[nH]c4ccccc34)NC2=O)cc1` [Example 215] (cyclo([AEF](Ac)W[Phe(4-COOH)]G[Pro(4R-NH2)][1Nal(3S-Me)]D[dNMeA]G[Bip(4'-COOH)][Trp(7-aza)]G[dDab][hTyr])) showed a pIC50 of 10.62.
